Assay results: US9409122B2, “Gas capture process” (Commonwealth Scientific and Industrial Research Organisation, priority 2011, dated 2016)

Test: CO2 desorption at 90° C.
Format: physicochemical
Procedure: The test results (shown in the accompanying figures) are a comparison of four compounds within general formula (I) with 4-aminopiperidine in terms of their CO2 absorption at 40° C. (FIG. 2(a)) and CO2 desorption at 90° C. (FIG. 2(b)). These absorption experiments were carried with CO2 gas (99%).
In FIG. 3, CO2 absorption and desorption results for Compounds 1 to 4 and 4-aminopiperidine (2M and 1.7M in one case due to the material availability) were compared with MEA (4M) and piperazine (Pz) (2M). An MEA concentration of 4M was chosen in this comparison to match the total amine/nitrogen concentration of diamines (2×2M).

- stability of carbamate: reasonably stable
SMILES: C1CNCCN1 [Pz, piperazine]
